The values below come from patent US20160205934A1 (Rohm and Haas Company, priority 2013, published 2016).

Molecules are shown by their SMILES. Like-named read-outs stand apart in the source and are kept apart here.

A word on the inhibition: it is the share of the control response that was lost under treatment. In general, % inhibition refers to the percentage by which the read-out fell short of the control. Low values mean a weak effect, high ones a strong effect.

The subject of one assay is Chlorella sp. ATCC 7516. Put plainly: Algal efficacy testing of dry paint films (modified ASTM 5589, 6-well plates). It is filed as cell-based. Particulars: 4 weeks; for inhibition at 1000 ppm: total conc 1000 ppm; for Total conc: total biocide conc in paint chosen as minimum inhibitory concentration (pass level 75% inhibition), or maximum tested where pass not reached. On the procedure:
(§1) The at least one phenylurea herbicide, (diuron, chlorotoluron, and/or isoproturon) was post added, as 33% active slurries, to a white, acrylic/silicone based outdoor paint free of biocides to give a total active ingredient concentration of 10000 and 1000 ppm respectively. These paints were then diluted with an antimicrobial free acrylic/silicone based paint and mixed to prepare targeted concentrations of antimicrobial compounds for the testing. The total biocides concentrations tested were 125, 250, 500, 1000, 2000 and 5000 ppm. After biocides addition or dilution, the paints were mixed 90 seconds with the horse power shaker (AXEL 75M3372/Agitateur SO-10MI) until uniformity was achieved. Paints containing different antimicrobial compounds at the same levels were mixed together in order to obtain the desired ratio of antimicrobial compounds. After one day, the paints were applied to Schleicher & Schuell filter paper at 280 μm wet film thickness and dried for 3 days at room temperature avoiding direct exposure to sunlight. Square discs (1.6 cm×1.6 cm) were cut out from each panel and were used as the substrate for algal efficacy tests. This sample size allowed for an agar border when the sample disc was placed into the well of the test plate.
(§2) Algal efficacy was tested according to modified ASTM 5589 which is a standard accelerated test method for determining resistance of various coatings (including paints) to algal defacement. To accommodate for high-throughput screening, this method was scaled down from petri dishes to 6-well plates. Bold Modified Basal Freshwater Nutrient Solution was used as growth medium. A single coated filter paper coupon was placed with a pair of sterile forceps at the center of the agar plug (on top) with the painted surface facing upwards. Algal inoculums were prepared by mixing equal concentrations (1×10^6 cfu/ml) and equal volumes of exponentially growing algae cultures.
(§3) Each well that contains a tested coupon was inoculated with 1750 μl of algal suspensions (1×10^6 cfu/ml) making sure that the whole surface (paint film as well as the agar surrounding it) was evenly covered. The plates were incubated at room temp (21° C.-25° C.) with cyclic exposure to light and dark phases, for a period of four weeks.
(§4) At the end of the four week incubation period, the samples were scored for percent inhibition regarding visible algal growth compared to the blank sample (0% inhibition).
(§5) The minimal targeted inhibition was set at 75%, meaning a coupon with at least 75% algal growth inhibition was considered as a pass.

Assay [1] concerns Stichococcus bacillaris SAG 379-1a / CCAP 379/1a. The description is as above. It is filed as cell-based. Particulars: for Total conc: total biocide conc in paint chosen as minimum inhibitory concentration (pass level 75% inhibition), or maximum tested where pass not reached. On the procedure: as §1, §2, §3, §4, §5
Setting [2] is: 672 h, visible algal growth vs blank.
The mark [3] stands for this setting: Stichococcus bacillaris, 672 h, Stichococcus, total conc 500 ppm, 4 weeks, visible algal growth vs blank, read-out: % inhibition.

For `Cc1ccc(NC(=O)N(C)C)cc1Cl` [Chlorotoluron, chlorotoluron], in the assay on Chlorella sp. ATCC 7516 (setting [2]), testing at 1000 ppm gave an inhibition of 100%. Moreover, the Total conc was found to be 1000 ppm in the assay with Chlorella sp. ATCC 7516 and 500 ppm in assay [1] (Stichococcus, 4 weeks). Also, the inhibition at 500 ppm in assay [1] (setting [3]) was 75%.
With `CN(C)C(=O)Nc1ccc(Cl)c(Cl)c1` [Diuron, diuron], the inhibition at 500 ppm with Chlorella sp. ATCC 7516 (672 h, total conc 500 ppm, visible algal growth vs blank) is 90%; in assay [1] (Stichococcus bacillaris, 672 h), 95%. For the same compound, the Total conc in the assay with Chlorella sp. ATCC 7516 was 500 ppm; in assay [1] (Stichococcus, 4 weeks), 500 ppm.
In the assay on Chlorella sp. ATCC 7516 (setting [2]), `CC(C)c1ccc(NC(=O)N(C)C)cc1` [Isoproturon, isoproturon] returned an inhibition at 1000 ppm of 100%. For the same compound, the Total conc turned out to be 1000 ppm in the assay on Chlorella sp. ATCC 7516 and 500 ppm in assay [1] (Stichococcus, 4 weeks). Also, the inhibition at 500 ppm in assay [1] (setting [3]) is 75%.
For `O=c1[nH]c2c(c(=O)n1C1CCCCC1)CCC2` [Lenacil, 3-cyclohexyl-1,5,6,7-tetrahydrocyclopentapyrimidine-2,4(3H)-dione], the inhibition at 5000 ppm with Chlorella sp. ATCC 7516 (672 h, total conc 5000 ppm, visible algal growth vs blank) was determined as 45%. Further, the Total conc with Chlorella sp. ATCC 7516 stood at 5000 ppm. For the same compound, the “% inhibition” value in the assay with Chlorella sp. ATCC 7516 (total conc 5000 ppm, visible algal growth vs blank) is 50%. In assay [1] (Stichococcus bacillaris, 672 h), this compound displayed an inhibition at 2000 ppm of 80% and an inhibition at 5000 ppm of 65%.
